# Experimental data as given in patent US8853359B2, “Endokinin C/D-derived peptides” (University of Miyazaki, priority 2009, dated 2014).
# Ends that are not written are not given here.
# Key:
# [1] = system: carrageenan-induced thermal hyperalgesia; assay: carrageenan-induced thermal hyperalgesia (withdrawal latency), EKC/D injected 1 hour after carrageenan; type: in vivo, rat
# Description: Intraplantar injection of carrageenan induces thermal hyperalgesia accompanying inflammation. To examine induction of thermal hyperalgesia, noxious thermal stimulation was applied to plantar using infrared rays. It can be said that thermal hyperalgesia takes place when the latency period of the withdrawal response becomes shorter than that for untreated rats. In FIG. 5, the vertical axis of the graph indicates the latency period in seconds and the horizontal axis of the graph indicates the time after injection of saline or EKC/D in minutes. The latency period in untreated rats (control) after noxious thermal stimulation was about 21 seconds. When saline (100 μl) was injected at 1 hour after carrageenan injection, the latency period was about 13 seconds. […] This state was sustained for 60 minutes (saline). […] When 10^−5M (1 nmol/100 μl) and 10^−6M ([…]) EKC/D were injected, the latency period before rats responded to noxious thermal stimulation was about 17 seconds, which was longer than that in the case of treatment with saline (EKC/D10^−5 M and EKC/D 10^−6 M).
# [2] = system: scratching behavior and thermal hyperalgesia induced by SP or EKA/B; settings: Non-patent document 3, cited from earlier work
# [3] = system: carrageenan-induced inflammation; assay: carrageenan-induced increase in paw size, EKC/D injected 1 hour after carrageenan; type: in vivo, rat
# Protocol: The vertical axis of the graph in FIG. 4 indicates increases (%) in paw size and the horizontal axis indicates the time after administration of saline (100 μl: saline) or EKC/D with “minutes,” thereby showing the time course changes of anti-inflammatory effects of EKC/D administration on carrageenan-induced inflammation. The paw size before carrageenan administration was determined to be 100%. Paw size was increased by about 50% (saline) as measured using a paw size meter at 1 hour after carrageenan injection. This state continued for about 60 minutes (saline). […] When 10^−3M EKC/D (100 nmol/100 μl) was injected, paw size had decreased to about 40% at 10 minutes after, to about 20% at 30 minutes after, and to about 40% at 50 minutes after injection.
# [4] = system: substance P-induced scratching behavior; assay: substance P-induced scratching behavior after intrathecal pre-administration of test peptide; type: in vivo, rat
# Protocol: In Example 1, 10^−3M (10 nmol/10 μl) EKC/D or D-EKC/D (1), (2) or (3) was administered to intrathecally catheterized rats via catheters. After the predetermined time periods denoted on the horizontal axis in FIG. 1, the numbers of scratching events (scratching behavior) induced by intrathecal administration of 10^−3M (10 nmol/10 μl) substance P (hereafter, referred to as “SP”) were determined. Here, the expression “10^−3M (10 nmol/10 μl) EKC/D or D-EKC/D (1), (2), or (3) was administered” refers to a situation in which 10 μl in total of a solution (that is, 10^−3M solution) containing 10 nmol of EKC/D or D-EKC/D (1), (2), or (3) was all administered. The expression, “ . . . administration of 10^−3M substance P (10 nmol/10 μl)” refers to a situation in which 10 μl in total of a solution (that is, 10^−3M solution) containing 10 nmol of the substance was all administered. The same similarly applies below.
# Meanwhile, saline (10 μl) was intrathecally administered to intrathecally catheterized rats via catheters and then, after 30 minutes, 10^−3M SP (10 nmol/10 μl) was intrathecally administered to the rats. The number of the thus induced scratching events was determined to be the number of scratching events in the control group. The control group is denoted with saline-4-SP in FIG. 1.
# The vertical axis of the graph in FIG. 1 indicates changes in the numbers of scratching events (represented by relative values) due to administration of 10^−3M EKC/D or D-EKC/D (1), (2), or (3) when the number of scratching events (of untreated rats in a control group) induced by intrathecal administration of 10^−3M substance P was determined to be 100%. Meanwhile, the horizontal axis indicates the intervals between the administration of EKC/D, D-EKC/D (1), (2), or (3) and 10^−3M substance P. […]
# The test was conducted with procedures similar to those in Example 1, except for 4 hours of interval between the administration of each test peptide and the administration of substance P. The concentration of each test peptide and that of substance P for administration were determined to be 10^−3M (10 nmol/10 μl), similarly to Example 1. The number of scratching events in the control group was determined with procedures similar to those in Example 1, such that substance P was administered at 30 minutes after administration of saline (10 μl) and then the number was determined.
# [5] = system: carrageenan-induced thermal hyperalgesia; assay: withdrawal latency to noxious thermal stimulation after carrageenan, intrathecal pre-administration of peptide; type: in vivo, rat; settings: 10^-3M (10 nmol/10 μl) peptide intrathecal; 2% carrageenan 4 hours later; FIG. 9B
# Protocol: (§1) In Example 6, 10^−3M (10 nmol/10 μl) D-EKC/D (3), (5), or (7), Spantide I, or saline (10 μl) was administered to intrathecally catheterized rats via catheters. Four hours later, 100 μl of 2% carrageenan (2 mg/100 μl) was subcutaneously administered to rat plantar.
# Meanwhile, noxious thermal stimulation was applied to paw plantar using infrared rays at 10-minute intervals after carrageenan administration. The time (latency period) required for withdrawal response to take place was measured. The latency period before untreated rats following noxious thermal stimulation was designated as the control latency period.
# [6] = system: formalin-induced pain behavior; assay: formalin-induced pain behavior (flinching) after intrathecal pre-administration of peptide; type: in vivo, rat
# Protocol: In Example 5, 10^−3M (10 nmol/10 μl) D-EKC/D (3), (5), or (7), Spantide I, or saline (10 μl) was administered to intrathecally catheterized rats via catheters and then 4 hours later, 50 μl of 2% formalin was administered subcutaneously to hind paws of rats. The number of flinching (pain behavior) was determined for 60 minutes after formalin administration, so that the degree of pain could be evaluated. During the 10-minute period after formalin administration (referred to as phase I), pain behavior was measured once every 2 minutes (1 minute per measurement). During the period from 10 minutes to 60 minutes after formalin administration (referred to as phase II), pain behavior was measured once every 5 minutes (1 minute per measurement), so that the degree of pain could be evaluated. During phase I, behavior (phasic pain) resulting from chemical stimulation accompanying formalin administration was observed. During phase II, tonic pain following the phasic pain was observed.
# The horizontal axis indicates time (minutes) after formalin administration and the vertical axis indicates the measured number of pain behavior per minute.
# [7] = system: carrageenan-induced inflammation; assay: carrageenan-induced increase in paw size after intrathecal pre-administration of peptide; type: in vivo, rat
# Protocol: as §1
# Paw size was measured with time for 60 minutes after carrageenan administration. The paw size (control) before carrageenan administration was designated as the basal level, and the increases in paw size were then calculated.
substance,measurement,setting,value
Ala-Tyr-Gln-Leu-Glu-His-Thr-Phe-Gln-Gly-Leu-Leu-NH2 (AYQLEHTFQGLL-NH2; listed as Homo sapiens) [EKC/D],latency period following noxious thermal stimulation,"[1]; 10^-3M EKC/D (100 nmol/100 μl), untreated about 21 seconds, saline about 13 seconds",almost the same as that in the case of untreated rats
same,latency period following noxious thermal stimulation,[1]; 10^-4M EKC/D (10 nmol/100 μl),almost the same tendency as that in the case of 10^−3M EKC/D
same,latency period following noxious thermal stimulation,[1]; 10^-5M EKC/D (1 nmol/100 μl),about 17 seconds
same,latency period following noxious thermal stimulation,[1]; 10^-6M EKC/D (100 μmol/100 μl),about 17 seconds
same,latency period following noxious thermal stimulation,[1]; 10^-7M EKC/D (10 pmol/100 μl),almost the same as that in the case of saline
same,SP-induced hyperalgesia,[2]; 5 minutes after administration of EKC/D,suppressed
same,induction of scratching behavior or thermal hyperalgesia by the peptide itself,[2]; intrathecal administration to a rat,does not induce
same,scratching behavior and thermal hyperalgesia induced by administration of SP or EKA/B,"[2]; pre-administration of the peptide, intrathecal",suppresses
same,"increases in paw size accompanying inflammation due to carrageenan, overall",[3]; 10^-3M EKC/D (100 nmol/100 μl),significantly suppressed
same,increase in paw size,"[3]; 10^-3M EKC/D (100 nmol/100 μl), 10 minutes after injection, saline about 50%",about 40%
same,increase in paw size,"[3]; 10^-3M EKC/D (100 nmol/100 μl), 30 minutes after injection",about 20%
same,increase in paw size,"[3]; 10^-3M EKC/D (100 nmol/100 μl), 50 minutes after injection",about 40%
same,"anti-inflammatory effects, overall",[3]; 10^-4M EKC/D (10 nmol/100 μl),weak anti-inflammatory effects
same,increase in paw size,"[3]; 10^-4M EKC/D (10 nmol/100 μl), 30 minutes after injection",40%
same,paw size,"[3]; 10^-4M EKC/D (10 nmol/100 μl), 60 minutes after injection",almost at a normal level
same,effect on paw size,[3]; 10^-5M EKC/D (1 nmol/100 μl),No clear effects
same,effect on paw size,[3]; 10^-6M EKC/D (100 pmol/100 μl),No clear effects
same,"number of scratching events induced by substance P, relative to control group (saline+SP = 100%)","[4]; 10^-3M (10 nmol/10 μl) peptide intrathecal, 10^-3M SP 30 minutes after peptide, FIG. 1",about 60%
same,duration of suppressive effects on substance P-induced scratching behavior,"[4]; 10^-3M peptide intrathecal, 10^-3M SP",≤ 1 h
same,"number of scratching events induced by substance P, relative to control group","[4]; 10^-3M peptide intrathecal, SP 1 hour after peptide, FIG. 1",restored 1 hour later to the same degree as that for the control group
Glu-His-Thr-Phe-Gln-DTrp-Leu-Leu-NH2 (EHTFQXLL; HELM PEPTIDE1{E.H.T.F.Q.[dW].L.L.[am]}$$$$V2.0; N-terminus assumed; SMILES CC(C)C[C@H](NC(=O)[C@H](CC(C)C)NC(=O)[C@@H](Cc1c[nH]c2ccccc12)NC(=O)[C@H](CCC(N)=O)NC(=O)[C@H](Cc1ccccc1)NC(=O)[C@@H](NC(=O)[C@H](Cc1c[nH]cn1)NC(=O)[C@@H](N)CCC(=O)O)[C@@H](C)O)C(N)=O) [D-EKC/D (5)],withdrawal time (latency period),[5],significant increases
same,numbers of pain behavior during phase I,"[6]; 10^-3M (10 nmol/10 μl) peptide intrathecal, 2% formalin 4 hours later, 0-10 minutes after formalin",significantly decreased
same,numbers of pain behavior during phase II,"[6]; 10^-3M (10 nmol/10 μl) peptide intrathecal, 2% formalin 4 hours later, 10-60 minutes after formalin",significantly decreased
same,suppressing effects on formalin-induced pain behavior compared with Spantide I,"[6]; 10^-3M intrathecal, formalin 4 hours later",sustained longer compared with the effects of Spantide I
same,rate of increase of paw sizes,"[7]; 10^-3M (10 nmol/10 μl) peptide intrathecal, 2% carrageenan 4 hours later, FIG. 9A",significant decreases
same,effects on paw size and withdrawal time compared with Spantide I,"[7]; 10^-3M intrathecal, carrageenan 4 hours later",sustained to a greater extent than the effects of Spantide I
same,scratching behavior induced by substance P,"[4]; Example 2, FIG. 2, 10^-3M peptide, SP 4 hours after peptide, control about 380 scratching",almost never induced
same,suppressive effects on scratching as administration interval is prolonged,"[4]; Example 2, FIG. 2, 10^-3M peptide, interval 8 hours and then 14 hours",gradually attenuated
same,scratching behavior induced by substance P / suppressive effects,"[4]; Example 3, FIG. 3, 10^-3M peptide, SP 4 hours after peptide, control 380 scratching",attenuated
